# According to patent US11819257B2, “Compositions, treatment systems and methods for improved cooling of lipid-rich tissue” (Zeltiq Aesthetics, Inc., priority 2014, dated 2023):
# System: skin at abdominal treatment sites
# Test: Clinical detection of freeze events during abdominal CoolSculpting cooling treatment after pre-treatment with cryoprotectant and mechanical stimulation
# Type: in vivo, human
# Settings: patients, 14 total cycles at −15° C. applicator set point, 60 minute cycle, 3 cc topical, brushed for 2 minutes before cooling
# Excerpt: This section describes an example of the clinical use of pre-treating the skin of a patient at a treatment site with mechanical stimulation in the presence of topically applied cryoprotectant prior to applying cooling treatment for affecting subcutaneous lipid-rich cells. Additional embodiments of the present technology may be practiced with features similar to or different than those described with respect to this example. Among other features of the present technology, this example illustrates that mechanical stimulation in the presence of cryoprotectant prior to cooling treatment may have utility in the prevention of freezing events or damage when cooling subcutaneous lipid-rich tissue for aesthetic or health-related reasons. Thirteen patients scheduled for abdominoplasty where offered to undergo a CoolSculpting® treatment on abdominal treatment sites. Each patient underwent two CoolSculpting® treatment sessions having a 60 minute cycle time and a −15° C. applicator temperature set point. The vacuum was set at 60 per typical recommended settings and a standard CoolSculpting® gel pad and liner were used per instructions. Six patients were assigned to a control group and had no pre-treatment performed prior to the CoolSculpting® treatment. […] Freeze events were detected using a freeze detection algorithm such as that described in U.S. Pat. No. 8,285,390.
smiles,measurement,setting,value
"CC(O)CO (centres unmarked) [100% PG, propylene glycol]",Probability of Freeze Event,,0%
same,Freeze Events,freeze detection algorithm,0
